Reference: patent publication US20240299429A1, “PREVENTIVE AND THERAPEUTIC AGENT FOR URINARY TRACT INFECTION CONTAINING 1-DEOXYMANNOSE” (SUNUS CO., LTD., priority 2022, published 2024)
Like-named read-outs stand apart in the source and are kept apart here.

Tests used:
[1] = Urinary concentration after oral administration to human subjects (HPLC); assay type: in vivo; conditions: 1 g oral
Experimental: HPLC devices: PU2089 plus, AS2055 plus and RI2031 plus (series number) manufactured by JASCO Corporation; MODEL 556 manufactured by GL Sciences Inc. • Columns: MITSUBISHI MCI GEL CK08S; two columns coupled together • Oven temperature: 60° C. • Eluent: Water • Detector: Differential refractometer • Flow rate: 1 ml/minute • Injection volume: 100 μL
The determination of 1-deoxymannose was carried out using a calibration curve produced by using the 1-deoxymannose prepared as above. The determination of mannose was carried out using a calibration curve produced by using special grade mannose as a reagent.
(§1) 1 g of 1-deoxymannose was dissolved in water to prepare a 20% w/w solution as a sample for oral administration. Urine was collected from six human subjects before administration of the sample. The total amount of sample was administered orally to each of the subjects, and the total amount of urine was collected one, two, three, four, six and eight hours after the administration. The urine collected at each of the points in time was subjected to volume measurement, and then filtered through a membrane filter with a pore size of 0.2 μm, followed by measurement of urinary 1-deoxymannose concentration by HPLC analysis.
Mannose, instead of 1-deoxymannose, was orally administered, followed by collection of urine, in the same manner as in Example 1. […]

Fim H lectin = Fim H lectin (Escherichia coli, UniProt P08191); conditions: read-out: dissociation constant (KD) against Fim H lectin (converted), cited from earlier work
[2] = system: Escherichia coli (NBRC 3301); assay: Utilization of sugars by Escherichia coli (turbidity in M9 minimal medium); assay type: cell-based; conditions: 1% sugar in M9 minimal medium, 37° C., compared with mannose and glucose
Experimental: In order to evaluate the utilization of 1-deoxymannose by Escherichia coli (NBRC 3301), the following experiment was conducted.
M9 minimal medium (obtained by adding MgSO4 and CaCl2 to Difco™ M9 Minimal Salt) containing 2 ml of 1% glucose was used. Escherichia coli (NBRC 3301) was subjected to shaking at 37° C. for 17 hours to prepare a culture solution. 10 μL of the culture solution was added to 2 ml of M9 minimal media containing 1%1-deoxymannose, 1% mannose, and 1% glucose, respectively, followed by shaking culture at 37° C. During culture, 100 μL of the culture solution was serially sampled and measured for its turbidity (600 nm) using a cell with an optical path length of 1 cm. The growth of Escherichia coli was evaluated based on increased turbidity. The results of the measurement are shown in FIG. 3, in which Example 2, Comparative Example 2, and Comparative Example 3 correspond to the culture solution containing 1-deoxymannose, the culture solution containing mannose, and the culture solution containing glucose, respectively.

[3] = Urine volume after oral administration; assay type: in vivo; conditions: 1 g oral, human, all points in time up to eight hours
Experimental: as §1
Mannose, instead of 1-deoxymannose, was orally administered, followed by collection of urine, in the same manner as in Example 1.
In FIG. 2, the vertical axis indicates the percentage of the urine volume after administration of 1-deoxymannose in Example 1 relative to the urine volume after administration of mannose in Comparative Example 1 taken as 100%, at the respective points in time.

[4] = Urinary recovery rate after oral administration; assay type: in vivo; conditions: urine; 1 g oral, human, up to eight hours after administration
Experimental: as §1
The urinary recovery rate of 1-deoxymannose was determined by dividing the amount of recovered 1-deoxymannose, which was obtained from the collected urine volume and the urinary 1-deoxymannose concentration, by the dose. The urinary recovery rate is expressed by the following formula:
[formula] • Vn: Urine volume [ml] n hour (s) after administration • Cn: Urinary 1-deoxymannose concentration [mg/ml] n hour (s) after administration • M: Dose of 1-deoxymannose (=1000 mg)

Sequence of Fim H lectin (P08191 22-300): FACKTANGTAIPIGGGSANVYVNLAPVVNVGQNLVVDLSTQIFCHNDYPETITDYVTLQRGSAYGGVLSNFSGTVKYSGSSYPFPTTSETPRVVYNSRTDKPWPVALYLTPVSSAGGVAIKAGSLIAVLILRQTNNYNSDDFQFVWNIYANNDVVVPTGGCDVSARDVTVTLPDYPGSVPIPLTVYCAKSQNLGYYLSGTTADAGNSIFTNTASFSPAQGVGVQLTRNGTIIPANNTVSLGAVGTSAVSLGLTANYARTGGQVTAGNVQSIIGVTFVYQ

For `OC[C@H]1OC[C@@H](O)[C@@H](O)[C@@H]1O` [1-deoxymannose, 1,5-anhydro-D-mannitol], the highest urinary concentration ([1]; average of six subjects, two hours after administration) is given as 2.12 mg/mL, the detection in urine ([1]; six subjects, urine collected one to eight hours after administration, detection limit 0.1 mg/ml) is given as “detected” and the Kd (Fim H lectin; expressed as mass concentration) is given as 1130 nM. The Kd (Fim H lectin) was 1130 nM, the “turbidity (600 nm) of Escherichia coli culture, growth” value [2] was “did not have increased turbidity” and the “urine volume versus mannose administration group” value [3] was “larger volume of urine”. For the same compound, the dose excreted [4] was 43.3 ± 9.03%.
